{"source": "patent US6548530B1", "about": "“CBI analogs of CC-1065 and the duocarmycins” (The Scripps Research Institute, priority 1995, dated 2003)", "key": {"[1]": {"test_system": "double-stranded DNA (clone w794)", "experiment": "DNA alkylation of 5′ end-labeled duplex DNA (thermally-induced strand cleavage, PAGE, autoradiography)", "format": "biochemical", "conditions": "for DNA alkylation efficiency, fold less efficient than (+)-CBI-CDPI1 (26): natural enantiomers", "experimental": "FIG. 21 illustrates the thermally-induced strand cleavage of double-stranded DNA (144 bp, nucleotide no. 138-5238, clone w794) after 24 h incubation of agent-DNA at 4° C. followed by removal of unbound agent and 30 inutes incubation at 100° C.; denaturing 8% polyacrylamide gel and autoradiography. Lanes 1-4, Sanger G,C,A, and T sequencing reactions; lane 5, control labeled w794 DNA; lanes 6-8, (+)-CPI-indole2 ((+)-4, 1×10^−4-1×10^−6 M); lanes 9-11, (+)-CBI-indole2 ((+)-27, 1×10^−5-1×10^−7 M).\nFIG. 22 illustrates the thermally-induced strand clealvage of 5′ end-labeled duplex DNA (clone w794, 144 bp, nucleotide no 138-5238). Incubation of agent-DNA at 25° C. (24 h) followed by removal of unbound agent and 30 min thermolysis at 100° C., denaturing 8% PAGE, and autoradiography. Lanes 1-2, ent-(−)-duocarmycin SA ((−)-2, 1×10^−6 and 1×10^−7 M); lanes 3-5, (+)-duocarmycin SA, ((+)-2, 1×10^−6-1×10^−8 M); lanes 6-9, G, C, A and T sequencing reactions; lane 10, control labeled w794 DNA; lanes 11-13, (+)-CBI-TMI ((+)-29, 1×10^−6-1×10^−8 M); lanes 14-15, ent-(−)-CBI-TMI ((−)-29, 1×10^−5 and 1×10^−6 M).\nFIGS. 23A-23B represent the following: Top: Plot of % integrated optical density (% IOD) versus time established through autoradiography of 5′ ^32P end-labeled DNA and used to monitor the relative rate of w794 alkylation at the 5′-AATTA high affinity site for (+)-CBI-indole2 (27) and (+)-CPI-indole2 (4); 37° C., 0-5 d, 1×10^−5 M agent. Bottom: Plot of % integrated optical density (% IOD) versus time established through autoradiography of 5′ ^32P end-labeled DNA and used to monitor the relative rate of w794 alkylation at the 5′-AATTA high affinity site for (+)-duocarmycin SA (2) and (+)-CBI-TMI (29); 4° C., 0-24 h, 1×10^−6 M agent.\nDNA Alkylation Studies. General procedures, the preparation of singly ^32P 5′ end-labeled double-stranded DNA, the agent binding studies, gel electrophoresis, and autoradiography were conducted according to procedures described in full detail elsewhere. (Boger et. al Tetrahedron 1991, 47, 2661). Eppendorf tubes containing the 5′ end-labeled DNA (9 μL, w794 and w836) in TE buffer (10 mM Tris, 1 mM EDTA, pH 7.5) were treated with the agent DIMETHYLSULFOXIDE (1 μL at the specified concentration). The solution was mixed by vortexing and brief centrifugation and subsequently incubated at 25° C. for 3 days. The covalently modified DNA was separated from unbound agent by Ethanol precipitation and resuspended in TE buffer (10 μL). The solution of DNA in an Eppendorf tube sealed with parafilm was heated at 100° C. for 30 min to induce cleavage at the alkylation sites, allowed to cool to 25° C. and centrifuged. Formamide dye (0.33% xylene cyanol FF, 0.03% bromophenol blue, 8.7% Na2EDTA 250 mM) was added (5 μL) to the supernatant. Prior to electrophoresis, the sample was denatured by warming at 100° C. for 5 min, placed in an ice bath, and centrifuged, before the supernatant (3 μL) was loaded directly onto the gel. Sanger dideoxynucleotide sequencing reactions were run as standards adjacent to the reaction samples. Polyacrylamide gel electrophoresis (PAGE) was run on an 8% sequencing gel under denaturing conditions (8 M urea) in TBE buffer (100 mM Tris, 100 mM boric acid, 0.2 mM Na2EDTA) followed by autoradiography.\nDNA Alkylation Studies of 2-5: Selectivity and Efficiency. Eppendorf tubes containing singly ^32P 5′-end-labeled double-stranded DNA^10 (9 μL) in TE buffer (10 mM Tris, 1 mM EDTA, pH 7.5) were treated with the agents 190-196 in DIMETHYLSULFOXIDE (1 μL, at the specified concentrations). The solutions were mixed by vortexing and brief centrifugation and subsequently incubated at 4° C. for 24 h. The covalently modified DNA was separated from unbound agent by Ethanol precipitation of the DNA. The Ethanol precipitations were carried out by adding t-RNA as a carrier (1 μL, 10 1μg/μL), a buffer solution containing salt (0.1 volume, 3 M NaOAc in TE) and −20° C. Ethanol (2.5 volumes). […]"}, "[2]": {"test_system": "L1210", "experiment": "in vitro cytotoxic activity (L1210)"}, "[3]": {"conditions": "in vivo; cited from earlier work"}, "[4]": {"test_system": "L1210", "conditions": "cited from earlier work"}, "[5]": {"conditions": "(+)-enantiomer; cited from earlier work"}, "[6]": {"experiment": "solubility properties", "format": "physicochemical", "conditions": "polar protic or aprotic solvents, water, nonpolar solvents"}, "[7]": {"conditions": "Mus musculus, L1210, read-out: cytotoxic potency"}}, "note": "pIC50: −log10 of the molar value. Read-outs that look alike come from different tables or passages of the source.", "data": [{"compound": "COc1cc2cc(C(=O)N3CC4CC45C3=CC(=O)c3ccccc35)[nH]c2c(OC)c1OC", "note": "(centres unmarked) [Compound 29, CBI-TMI]", "values": [{"measurement": "relative rate of DNA alkylation k(29)/k(2)", "setting": "[1]; 5′-AATTA high affinity site of w794 DNA, 4° C., 0-24 h, 1×10^−6 M agent", "result": 0.9}]}, {"compound": "Cl.NNC(=O)N1CC(CCl)c2c1cc(O)c1ccccc21", "note": "(centres unmarked) [Compound 73, 1-(Chloromethyl)-3-(hydrazino)carbonyl-5hydroxy-1,2-dihydro-3H-benz[e]indole hydrochloride]", "values": [{"measurement": "in vitro cytotoxic activity compared with N-BOC-CBI (9)", "setting": "[2]", "result": "more potent"}, {"measurement": "in vitro cytotoxic activity, fold more potent than tert-butylcarbazate precursor 72", "setting": "[2]; free semicarbazide versus 72", "result": "ca. 100 ×"}, {"measurement": "in vitro cytotoxic activity, fold less potent than (+)-CC-1065", "setting": "[2]; seco precursor with free amine", "result": 100, "unit": "×"}]}, {"compound": "(+)-CPI-PDE-I1 [reference compound]", "values": [{"measurement": "pIC50", "setting": "[2]; L1210", "result": 10.70}]}, {"compound": "Cc1c[nH]c2c1[C@@]13C[C@@H]1CN(C(=O)c1cc4c5c(ccc4[nH]1)N(C(=O)c1cc4c6c(ccc4[nH]1)N(C(N)=O)CC6)CC5)C3=CC2=O", "note": "[(+)-CPI-CDPI2]", "values": [{"measurement": "delayed toxicity", "setting": "[3]", "result": "exhibited the delayed toxicity"}]}, {"compound": "COc1c(O)c2c(c3cc(C(=O)N4CCc5c4c(O)c(OC)c4[nH]c(C(=O)N6CC7CC78C6=CC(=O)c6[nH]cc(C)c68)cc54)[nH]c13)CCN2C(N)=O", "note": "(stereo not drawn) [ent-(−)-CC-1065]", "values": [{"measurement": "delayed toxicity", "setting": "[3]", "result": "has not been observed"}, {"measurement": "cytotoxicity compared with natural (+)-CC-1065", "setting": "[4]", "result": "equally cytotoxic"}]}, {"compound": "NC(=O)N1CCc2c1ccc1[nH]c(C(=O)N3C[C@H]4CC45C3=CC(=O)c3ccccc35)nc21", "note": "(some centres unmarked) [Compound 64, N^2-[(3′-carbamoyl-1′,2′-dihydro-3′H-pyrrolo[3′,2′-e]benzimidazol-7′-yl)carbonyl]-1,2,9,9a-tetrahydro-cyclopropa-[c]-enz[e]-indol-4-one]", "values": [{"measurement": "DNA alkylation efficiency, fold less efficient than (+)-CBI-CDPI1 (26)", "setting": "[1]", "result": "approximately 100 ×"}, {"measurement": "pIC50", "setting": "[2]; [7]", "result": "9.00 to 9.30"}]}, {"compound": "O=C(Nc1ccc2[nH]c(C(=O)N3CC4CC45C3=CC(=O)c3ccccc35)cc2c1)c1cc2ccccc2[nH]1", "note": "(centres unmarked) [Compound 27]", "values": [{"measurement": "delayed toxicity", "setting": "[3]", "result": "lacked the delayed fatal toxicity"}, {"measurement": "in vivo antitumor activity", "setting": "[5]", "result": "potent and efficacious"}, {"measurement": "relative rate of DNA alkylation k(27)/k(4)", "setting": "[1]; single high affinity site (5′-AATTA) of w794 DNA, 37° C., 0-5 d, 1×10^−5 M agent", "result": 14}, {"measurement": "DNA alkylation efficiency, fold more efficient than (+)-CPI-indole2 (4)", "setting": "[1]; w794, 4° C. or 37° C., (+)-enantiomers", "result": 10, "unit": "×"}, {"measurement": "cytotoxic potency compared with (+)-CC-1065", "setting": "[2]; (+)-enantiomer", "result": "comparable"}, {"measurement": "cytotoxic potency, fold greater than (+)-CPI-indole2 (4, U71,184)", "setting": "[2]; (+)-enantiomer", "result": 4, "unit": "×"}]}, {"compound": "NC(=O)N1CCc2c1ccc1[nH]c(C(=O)N3C[C@H]4C[C@@]45C3=CC(=O)c3ccccc35)cc21", "note": "[Compound 26, CBI-CDPI1]", "values": [{"measurement": "DNA alkylation selectivity (sequence)", "setting": "[1]; (+)-enantiomer", "result": "5′-A/TA/TA/TA"}, {"measurement": "DNA alkylation selectivity (sequence)", "setting": "[1]; ent-(−)-enantiomer", "result": "5′-A/TAA/TA/T"}]}, {"compound": "NC(=O)N1CCc2c1ccc1oc(C(=O)N3C[C@H]4CC45C3=CC(=O)c3ccccc35)nc21", "note": "(some centres unmarked) [Compound 62, CBI-CDPBO1]", "values": [{"measurement": "DNA alkylation efficiency, fold less efficient than (+)-CBI-CDPI1 (26)", "setting": "[1]", "result": "approximately 100 ×"}, {"measurement": "pIC50", "setting": "[2]; [7]", "result": "9.00 to 9.30"}]}, {"compound": "COc1c(O)c2c(c3cc(C(=O)N4CCc5c4c(O)c(OC)c4[nH]c(C(=O)N6C[C@H]7C[C@@]78C6=CC(=O)c6[nH]cc(C)c68)cc54)[nH]c13)CCN2C(N)=O", "note": "[(+)-CC-1065, CC-1065]", "values": [{"measurement": "delayed toxicity", "setting": "[3]", "result": "exhibited the delayed toxicity"}, {"measurement": "solubility", "setting": "[6]", "result": "essentially insoluble in all solvents except DMSO or DMF"}, {"measurement": "pIC50", "setting": "[2]; L1210", "result": 10.70}]}]}
